Results from patent US20210277020A1, “HETEROCYCLIC COMPOUNDS AS MONOACYLGLYCEROL LIPASE INHIBITORS” (Hoffmann-La Roche Inc., priority 2018, published 2021).

These compounds were tested against T1, MAGL (Homo sapiens, UniProt Q99685) (assay: 2-AG assay: MAGL inhibition followed by hydrolysis of 2-arachidonoylglycerol to arachidonic acid, mass spectrometry). Conditions: measured in 2-AG assay (footnote [a]); substrate 2-arachidonoylglycerol 8 μM, 30 min at RT.
T1 sequence (Q99685 1-303): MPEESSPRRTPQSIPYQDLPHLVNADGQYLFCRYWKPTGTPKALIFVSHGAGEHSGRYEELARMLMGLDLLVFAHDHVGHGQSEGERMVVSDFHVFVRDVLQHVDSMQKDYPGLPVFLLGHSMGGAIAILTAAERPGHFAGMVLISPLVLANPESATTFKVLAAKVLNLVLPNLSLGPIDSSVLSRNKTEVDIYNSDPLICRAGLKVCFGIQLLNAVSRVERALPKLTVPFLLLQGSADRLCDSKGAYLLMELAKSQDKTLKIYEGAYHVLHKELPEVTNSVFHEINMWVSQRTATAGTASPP
Format: biochemical
Summary of the method: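 Test compounds (final […], 3-fold steps) preincubated 15 min at RT with […] in 50 mM Tris, 1 mM EDTA, 0.01% Tween; 8 μM 2-arachidonoylglycerol then added for 30 min at RT. Acetonitrile quench; arachidonic acid measured by RapidFire SPE–MS/MS, activity from arachidonic acid/d8-arachidonic acid ratio.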

| SMILES | IC50 |
| --- | --- |
| O=C1CO[C@H]2CCN(C(=O)N3CC(O)(C#Cc4ccccc4Cl)C3)C[C@H]2N1 [Example 190, (4aR,8aS)-6-[3-[2-(2-Chlorophenyl)ethynyl]-3-hydroxyazetidine-1-carbonyl]-4,4a,5,7,8,8a-hexahydropyrido[4,3-b][1,4]oxazin-3-one] | 535 nM |
| CC1(C#Cc2ccc(Cl)cc2Cl)CCN(C(=O)N2CC[C@@H]3OCC(=O)N[C@@H]3C2)CC1 [Example 196, (4aR,8aS)-6-(4-((2,4-Dichlorophenyl)ethynyl)-4-methylpiperidine-1-carbonyl)hexahydro-2H-pyrido[4,3-b][1,4]oxazin-3(4H)-one] | 92 nM |
| CC1(C#Cc2ccc(F)cc2Cl)CCN(C(=O)N2CC[C@@H]3OCC(=O)N[C@@H]3C2)CC1 [Example 197, (4aR,8aS)-6-(4-((2-Chloro-4-fluorophenyl)ethynyl)-4-methylpiperidine-1-carbonyl)hexahydro-2H-pyrido[4,3-b][1,4]oxazin-3(4H)-one] | 230 nM |
| O=C1CO[C@H]2CCN(C(=O)N3CC(C#CC4(O)CCCC4)C3)C[C@H]2N1 [Example 198, (4aR,8aS)-6-[3-[2-(1-Hydroxycyclopentyl)ethynyl]azetidine-1-carbonyl]-4,4a,5,7,8,8a-hexahydropyrido[4,3-b][1,4]oxazin-3-one] | 507 nM |
| O=C1CO[C@H]2CCN(C(=O)N3CC(C#CC4=CCCC4)C3)C[C@H]2N1 [Example 199, (4aR,8aS)-6-[3-[2-(Cyclopenten-1-yl)ethynyl]azetidine-1-carbonyl]-4,4a,5,7,8,8a-hexahydropyrido[4,3-b][1,4]oxazin-3-one] | 107 nM |

Stronger by IC50, values ahead:

| IC50 | SMILES |
| --- | --- |
| 86 nM | COc1ccccc1C#CC1CCN(C(=O)N2CC[C@@H]3OCC(=O)N[C@@H]3C2)CC1 [Example 193, (4aR,8aS)-6-(4-((2-Methoxyphenyl)ethynyl)piperidine-1carbonyl)hexahydro-2H-pyrido[4,3-b][1,4]oxazin-3(4H)-one] |
| 81 nM | COCc1ccccc1C#CC1CN(C(=O)N2CC[C@@H]3OCC(=O)N[C@@H]3C2)C1 [Example 191, (4aR,8aS)-6-[3-[2-[2-(Methoxymethyl)phenyl]ethynyl]azetidine-1-carbonyl]-4,4a,5,7,8,8a-hexahydropyrido[4,3-b][1,4]oxazin-3-one] |
| 31 nM | Cc1ccccc1C#CC1CCN(C(=O)N2CC[C@@H]3OCC(=O)N[C@@H]3C2)CC1 [Example 194, (4aR,8aS)-6-(4-(o-Tolylethynyl)piperidine-1-carbonyl)hexahydro-2H-pyrido[4,3-b][1,4]oxazin-3(4H)-one] |
| 25 nM | Cc1cccc(C)c1C#CC1CCN(C(=O)N2CC[C@@H]3OCC(=O)N[C@@H]3C2)CC1 [Example 195, (4aR,8aS)-6-(4-((2,6-Dimethylphenyl)ethynyl)piperidine-1-carbonyl)hexahydro-2H-pyrido[4,3-b][1,4]oxazin-3(4H)-one] |
| 18 nM | O=C1CO[C@H]2CCN(C(=O)N3CCC(C#Cc4ccccc4C(F)(F)F)CC3)C[C@H]2N1 [Example 192, (4aR,8aS)-6-(4-((2-(Trifluoromethyl)phenyl)ethynyl)piperidine-1-carbonyl)hexahydro-2H-pyrido[4,3-b][1,4]oxazin-3(4H)-one] |
| 2 nM | O=C1CO[C@H]2CCN(C(=O)N3CC(C#Cc4ccc(C(F)(F)F)cc4Cl)C3)C[C@H]2N1 [Example 200, (4aR,8aS)-6-(3-((2-Chloro-4-(trifluoromethyl)phenyl)ethynyl)azetidine-1-carbonyl)hexahydro-2H-pyrido[4,3-b][1,4]oxazin-3(4H)-one] |
| 1 nM | O=C1CO[C@H]2CCN(C(=O)N3CC(C#Cc4c(F)cc(C(F)(F)F)cc4Cl)C3)C[C@H]2N1 [Example 189, (4aR,8aS)-6-[3-[2-[2-Chloro-6-fluoro-4-(trifluoromethyl)phenyl]ethynyl]azetidine-1-carbonyl]-4,4a,5,7,8,8a-hexahydropyrido[4,3-b][1,4]oxazin-3-one] |
